For series [1], the system named is carbachol-dependent mobilization of intracellular Ca2+ in SH-SY5Y cells. The series is described as follows: Antagonist effect on carbachol-evoked intracellular Ca2+ mobilization (Fluo-4 NW). In kind it is cell-based, human. The settings on record: SH-SY5Y cells; for Antagonist activity (IC50) / IC50: 100 nM carbachol, 15 min preincubation; for IC50: Homo sapiens, read-out: Antagonist activity (IC50). As for the experimental part:
(§1) The intracellular free Ca^2+ concentration [Ca^2+]i was measured in confluent monolayers of SH-SY5Y or A7R5 cells with the Ca^2+-sensitive fluorescent indicator Fluo-4 NW according to the instruction (Fluo-4 NW Calcium Assay Kit, Thermo Fisher Scientific, cat. No. F36206) (as referenced by Vilskersts et al..
The investigation of Ca^2+ channel blocking activity of DHP derivatives was based on the effect of DHP on carbachol evoked intracellular Ca^2+ mobilization in human neuroblastoma cells.
The cells were preincubated in the dark for 15 minutes with the tested compounds at concentrations ranging from 0.16 to 100 μM. The application of carbachol (100 nM) to […] NW loaded SH-SY5Y cells stimulated a classic “biphasic” response. The well-known 3rd generation calcium channel inhibitor amlodipine, which is also claimed to act as antioxidant and free radical scavenger, was used as the positive control (at the concentration range from 20 to 100 μM).
(§2) Changes in [Ca^2+]i were measured from the fluorescence emitted at 516 nm due to alternate excitation at 494 nm using the microplate reader Tecan Infinite M1000 (Austria). Intracellular Ca^2+ concentration was calculated from a standard curve with known amounts of free Ca^2+ using the standard Ca^2+-EGTA buffering system (Calcium Calibration Buffer Kit, cat. No.C-3008, Thermo Fisher Scientific).
The IC50 values for the tested compounds were calculated using GraphPad Prism 4.0 software.

A further series relates to [Ca2+]i in SH-SY5Y cells. The experiment in a line: Ca2+ channel agonist activity, [Ca2+]i in Fluo-4 NW-loaded cells. In kind it is cell-based, human. The conditions noted are these: compound at 100 μM. Here is the method:
as §1
For the investigation of Ca^2+ channel agonist activity of the DHP compound, 4 […] NW loaded SH-SY5Y or A7R5 cells were stimulated by the addition of compound 4 at the concentration range from 4 to 100 μM. The well-known calcium channel agonist Bay K8644 was used as the positive control (at the concentration range from 4 to 100 μM).
as §2
(§3) In some experiments, […] NW loaded cells were washed and placed in normal Ca^2+-free HEPES-buffered replacement medium. In Ca^2+ restoration experiments, Ca^2+ was initially absent from the medium and was restored to 1 mM after 870 s of stimulation with compound 4.

In series [2] the test system is Ca2+ ion channel activity evoked by compound 4 in SH-SY5Y cells. The experiment in a line: Inhibitor analysis of Ca2+ ion channel activity evoked by compound 4. The conditions noted are these: for Effect on Ca2+ ion channel activity in the presence of compound 4: inhibitor at concentrations from 4 to 100 μM; for inhibition at 100 µM / IC50: Homo sapiens; for inhibition at 100 µM: SH-SY5Y, 15 min preincubation; for IC50: 100 μM compound 4, SH-SY5Y cells, read-out: IC50 for inhibition of Ca2+ ion channel activity evoked by compound 4. In kind it is cell-based, human. As for the experimental part: The intracellular free Ca^2+ concentration [Ca^2+]i was measured in confluent monolayers of SH-SY5Y or […] cells with the Ca^2+-sensitive fluorescent indicator Fluo-4 NW according to the instruction (Fluo-4 NW Calcium Assay Kit, Thermo Fisher Scientific, cat. No. F36206) (as referenced by […] al.. Changes in [Ca^2+]i were measured from the fluorescence emitted at 516 nm due to alternate excitation at 494 nm using the microplate reader Tecan Infinite M1000 (Austria). Intracellular Ca^2+ concentration was calculated from a standard curve with known amounts of free Ca^2+ using the standard Ca^2+-EGTA buffering system (Calcium Calibration Buffer Kit, cat. No.C-3008, Thermo Fisher Scientific). […] The commercial calcium agonist compound Bay […] was used as the reference compound.

Series [3] is described as follows: Electrochemical oxidation potentials by cyclic voltammetry. The settings on record: glassy carbon electrode, vs Ag/Ag+, acetonitrile, 0.1 M TBABF4. In kind it is physicochemical. As for the experimental part: The cyclic voltammetry experiments were carried out on the PARSTAT 2273 electrochemical system. A stationary glassy carbon disk electrode (d = 0.8 mm) served as the working electrode, while the counter electrode was a Pt wire. The oxidation potentials were measured relative to Ag/Ag^+ reference electrode. Acetonitrile was dried over P2O5 and distilled; the distillate was stored over CaH2 and redistilled just before use. Recrystallized tetrabutylammonium tetrafluoroborate (TBABF4) was used as a supporting electrolyte at 0.1 M concentration.

The test system of series [4] is Ca2+ response induced by compound 4 in SH-SY5Y cells (RyRs). The experiment in a line: Role of RyRs in Ca2+ response induced by compound 4 (Ca2+-free medium). In kind it is cell-based, human. Here is the method:
as §3
Where indicated, the cells were preincubated with inhibitors of Ca^2+ signaling proteins (amlodipine, nifedipine, nicardipine, mecamylamine, atropine, or 2-aminoethoxydiphenyl borate (2-APB) in dose 100 μM; procaine in dose 10 mM for 15 min, or with 5 μM thapsigargin for 10 min, or with 100 μM ruthenium red for 5 min), followed by stimulation with 100 μM of compound 4. The commercial calcium agonist compound Bay K8644 was used as the reference compound.

Setting [5] is: inhibitor 100 μM, 100 μM compound 4.
The mark [6] stands for this setting: inhibitor 4 μM, 100 μM compound 4.
The mark [7] stands for this setting: inhibitor 20 μM, 100 μM compound 4.

Entries after “also recorded” stand apart in the source; their conditions may differ.

Regarding `COC(=O)C1=C(C)NC(C)=C([N+](=O)[O-])C1c1ccccc1C(F)(F)F` (centres unmarked) [Bay K8644], the “Antagonist activity (IC50)” value in series [1] is recorded as “No effect”. Besides, in series [Ca2+]i in SH-SY5Y cells, the “Agonist activity (RFU, 100 μM)” value is listed as 1553 ± 115 RFU.

Consider `C/C=C(/C)C(=O)O[C@H]1C(C)=C2[C@H]([C@@H]1OC(=O)CCCCCCC)[C@@](C)(OC(C)=O)C[C@H](OC(=O)CCC)[C@@]1(O)[C@H]2OC(=O)[C@@]1(C)O` [thapsigargin], for which the “Influence on Ca2+ ion increase induced by compound 4” value in series [2] (5 μM inhibitor, Ca2+-free medium) is “no influence”.

Turning to `CN1[C@@H]2CC[C@H]1C[C@@H](OC(=O)C(CO)c1ccccc1)C2` (some centres unmarked) [Atropine], the “Effect on Ca2+ ion channel activity in the presence of compound 4” value in series [2] was “no effect”.

With `CCOC(=O)COC(=O)C1=C(C)NC(C)=C(C(=O)OCC(=O)OCC)C1c1ccc[n+](CC(=O)c2ccccc2)c1` [Compound 3], in series [1], the IC50 was 3.6 ± 0.3 µM. Besides, the “Agonist activity (RFU, 100 μM)” value in series [Ca2+]i in SH-SY5Y cells was “No effect”. In series [3], this compound came in with an Electrooxidation potential of 1.68 V.

With `CCN(CC)CCOC(=O)c1ccc(N)cc1` [Procaine], in series [4] (Homo sapiens, SH-SY5Y, Ca2+-free medium, read-out: IC50 for inhibition of Ca2+ response induced by compound 4), the IC50 was determined as 61 ± 9 µM. In series [4] (Homo sapiens, SH-SY5Y, inhibitor 6.25 μM, Ca2+-free medium), the inhibition at 6.25 µM is 0%. In addition, the inhibition at 12.5 µM in series [4] (Homo sapiens, SH-SY5Y, inhibitor 12.5 μM, Ca2+-free medium) was 5 ± 9%. Further, the inhibition at 25 µM in series [4] (Homo sapiens, SH-SY5Y, inhibitor 25 μM, Ca2+-free medium) came out at 0%. For the same compound, in series [4] (Homo sapiens, SH-SY5Y, inhibitor 50 μM, Ca2+-free medium), the inhibition at 50 µM came to 18 ± 6%. Moreover, the inhibition at 100 µM in series [4] (Homo sapiens, SH-SY5Y, inhibitor 100 μM, Ca2+-free medium) is 98 ± 5%. Besides, the “Ca2+ response induced by compound 4 after preincubation with inhibitor” value in series [4] (inhibitor 10 mM) is recorded as “completely blocked; also recorded: absent”.

Consider `CCOC(=O)COC(=O)C1=C(C)NC(C)=C(C(=O)OCC(=O)OCC)C1c1cc[n+](CC(=O)c2ccccc2)cc1` [Compound 5], for which the “Antagonist activity (IC50)” value in series [1] was “lacked any activity; also recorded: no activity; also recorded: No effect”. In addition, in series [Ca2+]i in SH-SY5Y cells, the “Agonist activity (RFU, 100 μM)” value is given as “No effect”. In addition, in series [3], the Electrooxidation potential was 1.70 V.

For `CCOC(=O)COC(=O)C1=C(C)NC(C)=C(C(=O)OCC(=O)OCC)C1c1ccc[n+](CC(=O)c2ccc(OC)cc2)c1` [Compound 6], in series [1], the IC50 came to 100 ± 9 µM and the “Antagonist activity relative to amlodipine (times lower)” value is “approximately nine times lower”. For the same compound, the “Agonist activity (RFU, 100 μM)” value in series [Ca2+]i in SH-SY5Y cells is “No effect”. The Electrooxidation potential in series [3] came to 1.78 V.

Regarding `N.N.N.N.N.N.N.N.N.N.N.N.N.N.[Cl-].[Cl-].[Cl-].[Cl-].[Cl-].[Cl-].[O-2].[O-2].[Ru+3].[Ru+3].[Ru+4]` [Ruthenium, Ruthenium red], in series [4] (inhibitor 100 μM), the “Ca2+ response induced by compound 4 after preincubation with inhibitor” value is recorded as “absent”.

As for `CNC1(C)C2CCC(C2)C1(C)C` (centres unmarked) [Mecamylamine], in series [2], the “Effect on Ca2+ ion channel activity in the presence of compound 4” value is given as “no effect”.

Regarding `CCOC(=O)CC[n+]1cccc(C2C(C(=O)OCC(=O)OCC)=C(C)NC(C)=C2C(=O)OCC(=O)OCC)c1` [Compound 2], the “Antagonist activity (IC50)” value in series [1] is on record as “lacked any activity; also recorded: no activity; also recorded: No effect”. Besides, the “Agonist activity (RFU, 100 μM)” value in series [Ca2+]i in SH-SY5Y cells is on record as “No effect”. In series [3], this compound came in with an Electrooxidation potential of 1.69 V.

For the compound `NCCOB(c1ccccc1)c1ccccc1` [Compound 2-APB, 2-aminoethoxydiphenyl borate], the “Effect on Ca2+ channel response induced by compound 4” value in series [2] (pretreatment for 15 min) is on record as “no effect”.

For the compound `COC(=O)C1=C(C)NC(C)=C(C(=O)OC)C1c1ccccc1[N+](=O)[O-]` [Nifedipine], in series [2] (setting [5]), testing at 100 µM gave an inhibition of 42 ± 5% and the “Phase of the compound 4 response that is inhibited” value was “inhibited both phases”. In addition, the IC50 in series [2] was above 100 µM. In addition, the “Inhibition (%) of Ca2+ ion channel activity evoked by compound 4” value (“Inhibition (%)” for short) in series [2] (setting [6]) was 7 ± 8%. Further, in series [2] (setting [7]), the “Inhibition (%)” value is given as 16 ± 10%.

With `COC(=O)C1=C(C)NC(C)=C(C(=O)OCCN(C)Cc2ccccc2)C1c1cccc([N+](=O)[O-])c1` (centres unmarked) [Nicardipine], the inhibition at 100 µM in series [2] (setting [5]) was 33 ± 8%. For the same compound, the IC50 in series [2] was above 100 µM. Also, the results for the “Inhibition (%)” value in series [2] (setting [6]) and in series [2] (setting [7]) were 10 ± 6% and 11 ± 5%, respectively.

As for `CCOC(=O)COC(=O)C1=C(C)NC(C)=C(C(=O)OCC(=O)OCC)C1c1ccc[n+](CC(=O)c2ccc([N+](=O)[O-])cc2)c1` [Compound 1], in series [1], the IC50 came out at 100 ± 12 µM. For the same compound, in series [Ca2+]i in SH-SY5Y cells, the “Agonist activity (RFU, 100 μM)” value is on record as “No effect”.

One may read the IC50 as the concentration that inhibits the measured activity by half. As usually defined, the inhibition is the change of the read-out against control, counted positive when it falls. Lower therefore signals a response near the control.

The record behind these values is publication PMC7139875, “4-Pyridinio-1,4-Dihydropyridines as Calcium Ion Transport Modulators: Antagonist, Agonist, and Dual Action” (Oxidative Medicine and Cellular Longevity, 2020).
